Measurements published in US20120121591A1 (priority 2009, published 2012).
Read-outs that look alike come from different tables or passages of the source. Positions of bridges follow the written chain, without caps; N, C: chain ends. Residues, ends and D or L forms follow the SMILES beside them.

Tests used:
Assay type in all cases: cell-based
[1] = tested on: IFN-g secretion from T cells in human whole blood
hKv1.3 = hKv1.3 (Homo sapiens, UniProt P22001); experiment: cell-based; conditions: Kv1.3 (IWQ) IC50 (nM, Avg)
hKv1.3, sequence (P22001 whole entry): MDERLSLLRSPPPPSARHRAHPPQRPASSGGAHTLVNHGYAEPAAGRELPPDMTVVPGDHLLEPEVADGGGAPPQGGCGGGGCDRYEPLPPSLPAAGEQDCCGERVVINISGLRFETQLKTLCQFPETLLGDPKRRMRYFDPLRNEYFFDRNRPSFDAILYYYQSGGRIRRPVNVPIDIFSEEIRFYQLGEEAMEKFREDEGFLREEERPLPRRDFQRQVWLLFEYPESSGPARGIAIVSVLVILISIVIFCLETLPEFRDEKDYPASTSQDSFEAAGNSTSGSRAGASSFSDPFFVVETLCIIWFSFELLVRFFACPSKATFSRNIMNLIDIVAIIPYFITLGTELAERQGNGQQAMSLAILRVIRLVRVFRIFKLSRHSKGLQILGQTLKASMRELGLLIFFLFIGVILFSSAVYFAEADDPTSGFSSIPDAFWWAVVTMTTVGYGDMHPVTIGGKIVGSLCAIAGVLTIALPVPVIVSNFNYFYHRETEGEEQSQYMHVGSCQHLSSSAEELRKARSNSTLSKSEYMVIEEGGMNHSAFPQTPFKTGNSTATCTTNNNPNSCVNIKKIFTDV

[2] = tested on: IL-2 secretion from T cells in human whole blood; conditions: read-out: WB (IL-2) IC50 (nM, Avg)
[3] = read-out: WB (IFNg) IC50 (nM, Avg)

| SMILES | IC50 [1, 3] | IC50 (hKv1.3) | IC50 [2] | IC50 ([1]; read-out: WB (IFNg) IC5- (nM, Avg)) |
| --- | --- | --- | --- | --- |
| CC[C@H](C)[C@@H]1NC(=O)[C@@H](NC(=O)[C@H](CO)NC(=O)[C@@H](N)CCCNC(=N)N)CSSC[C@@H](C(=O)O)NC(=O)[C@H]([C@@H](C)O)NC(=O)CNC(=O)[C@@H]2CSSC[C@@H]3NC(=O)[C@H](CCC(N)=O)NC(=O)[C@H](Cc4ccccc4)NC(=O)[C@H](C)NC(=O)[C@H]([C@@H](C)O)NC(=O)[C@H](CSSC[C@H](NC(=O)[C@H](C)NC(=O)[C@H](CO)NC(=O)[C@H](CC(C)C)NC(=O)[C@H](CCCNC(=N)N)NC(=O)[C@H](Cc4ccc(O)cc4)NC(=O)[C@H](CCCCN)NC(=O)[C@H](CCSC)NC(=O)[C@H](CO)NC(=O)[C@H](Cc4c[nH]cn4)NC(=O)[C@H](CCCCN)NC3=O)C(=O)N[C@@H](CCCNC(=N)N)C(=O)N[C@@H](CCCCN)C(=O)N[C@@H]([C@@H](C)O)C(=O)N2)NC(=O)[C@H](CCCNC(=N)N)NC(=O)[C@H](CO)NC(=O)[C@H](CCCCN)NC(=O)[C@@H]2CCCN2C(=O)[C@H]([C@@H](C)CC)NC(=O)[C@H]([C@@H](C)O)NC(=O)[C@H](CC(=O)O)NC1=O [[Ala27]ShK] | 8.78 nM | 0.207 nM | 1.57 nM |  |
| CC[C@H](C)[C@@H]1NC(=O)[C@H]([C@@H](C)O)NC(=O)[C@H](CC(=O)O)NC(=O)[C@H](CCC(=O)O)NC(=O)[C@@H](NC(=O)[C@H](CO)NC(=O)[C@@H](N)CCCNC(=N)N)CSSC[C@@H](C(N)=O)NC(=O)[C@H]([C@@H](C)O)NC(=O)CNC(=O)[C@@H]2CSSC[C@@H]3NC(=O)[C@H](CCCCN)NC(=O)[C@H](Cc4ccccc4)NC(=O)[C@H](C)NC(=O)[C@H]([C@@H](C)O)NC(=O)[C@H](CSSC[C@H](NC(=O)[C@H](Cc4ccccc4)NC(=O)[C@H](CO)NC(=O)[C@H](CC(C)C)NC(=O)[C@H](CCCNC(=N)N)NC(=O)[C@H](Cc4ccc(O)cc4)NC(=O)[C@H](CCCCN)NC(=O)[C@H](CO)NC(=O)[C@H](CO)NC(=O)[C@H](Cc4c[nH]cn4)NC(=O)[C@H](CCCCN)NC3=O)C(=O)N[C@@H](CCCNC(=N)N)C(=O)N[C@@H](CCCCN)C(=O)N[C@@H]([C@@H](C)O)C(=O)N2)NC(=O)[C@H](CCCNC(=N)N)NC(=O)[C@H](CO)NC(=O)[C@H](CCCCN)NC(=O)[C@@H]2CCCN2C1=O [[Glu4, Lys16,Ser21]ShK-amide] | 1.99 nM | 0.098 nM | 0.86 nM |  |
| CC[C@H](C)[C@@H]1NC(=O)[C@@H](NC(=O)[C@H](CO)NC(=O)[C@@H](N)CCCNC(=N)N)CSSC[C@@H](C(=O)O)NC(=O)[C@H]([C@@H](C)O)NC(=O)CNC(=O)[C@@H]2CSSC[C@@H]3NC(=O)[C@H](CCC(N)=O)NC(=O)[C@H](Cc4ccccc4)NC(=O)[C@H](CCCNC(=N)N)NC(=O)[C@H]([C@@H](C)O)NC(=O)[C@H](CSSC[C@H](NC(=O)[C@H](Cc4ccccc4)NC(=O)[C@H](CO)NC(=O)[C@H](CC(C)C)NC(=O)[C@H](CCCNC(=N)N)NC(=O)[C@H](Cc4ccc(O)cc4)NC(=O)[C@H](CCCCN)NC(=O)[C@H](CCSC)NC(=O)[C@H](CO)NC(=O)[C@H](Cc4c[nH]cn4)NC(=O)[C@H](CCCCN)NC3=O)C(=O)N[C@@H](CCCNC(=N)N)C(=O)N[C@@H](CCCCN)C(=O)N[C@@H]([C@@H](C)O)C(=O)N2)NC(=O)[C@H](CCCNC(=N)N)NC(=O)[C@H](CO)NC(=O)[C@H](CCCCN)NC(=O)[C@@H]2CCCN2C(=O)[C@H]([C@@H](C)CC)NC(=O)[C@H]([C@@H](C)O)NC(=O)[C@H](CC(=O)O)NC1=O [[Arg14]ShK] | 0.307 nM | 0.077 nM | 0.266 nM |  |
| CC[C@H](C)[C@@H]1NC(=O)[C@@H](NC(=O)[C@H](CO)NC(=O)[C@@H](N)CCCNC(=N)N)CSSC[C@@H](C(=O)O)NC(=O)[C@H]([C@@H](C)O)NC(=O)CNC(=O)[C@@H]2CSSC[C@@H]3NC(=O)[C@H](CCC(N)=O)NC(=O)[C@H](Cc4ccccc4)NC(=O)[C@H](C)NC(=O)[C@H]([C@@H](C)O)NC(=O)[C@H](CSSC[C@H](NC(=O)[C@H](Cc4ccccc4)NC(=O)[C@H](CO)NC(=O)[C@H](CCCNC(=N)N)NC(=O)[C@H](CCCNC(=N)N)NC(=O)[C@H](Cc4ccc(O)cc4)NC(=O)[C@H](CCCCN)NC(=O)[C@H](CCSC)NC(=O)[C@H](CO)NC(=O)[C@H](Cc4c[nH]cn4)NC(=O)[C@H](CCCCN)NC3=O)C(=O)N[C@@H](CCCNC(=N)N)C(=O)N[C@@H](CCCCN)C(=O)N[C@@H]([C@@H](C)O)C(=O)N2)NC(=O)[C@H](CCCNC(=N)N)NC(=O)[C@H](CO)NC(=O)[C@H](CCCCN)NC(=O)[C@@H]2CCCN2C(=O)[C@H]([C@@H](C)CC)NC(=O)[C@H]([C@@H](C)O)NC(=O)[C@H](CC(=O)O)NC1=O [[Arg25]ShK] | 0.2 nM | 0.107 nM | 0.095 nM |  |
| CC[C@H](C)[C@@H]1NC(=O)[C@H]([C@@H](C)O)NC(=O)[C@H](CC(=O)O)NC(=O)[C@H](CCC(=O)O)NC(=O)[C@@H](NC(=O)[C@H](CO)NC(=O)[C@@H](N)CCCNC(=N)N)CSSC[C@@H](C(N)=O)NC(=O)[C@H]([C@@H](C)O)NC(=O)CNC(=O)[C@@H]2CSSC[C@@H]3NC(=O)[C@H](CCCCN)NC(=O)[C@H](Cc4ccccc4)NC(=O)[C@H](C)NC(=O)[C@H]([C@@H](C)O)NC(=O)[C@H](CSSC[C@H](NC(=O)[C@H](Cc4ccccc4)NC(=O)[C@H](CO)NC(=O)[C@H](CC(C)C)NC(=O)[C@H](CCCNC(=N)N)NC(=O)[C@H](Cc4ccc(O)cc4)NC(=O)[C@H](CCCCN)NC(=O)[C@H](CCSC)NC(=O)[C@H](CO)NC(=O)[C@H](Cc4c[nH]cn4)NC(=O)[C@H](CCCNC(=N)N)NC3=O)C(=O)N[C@@H](CCCCN)C(=O)N[C@@H](CCCNC(=N)N)C(=O)N[C@@H]([C@@H](C)O)C(=O)N2)NC(=O)[C@H](CCCNC(=N)N)NC(=O)[C@H](CO)NC(=O)[C@H](CCC(=O)O)NC(=O)[C@@H]2CCCN2C1=O [[Glu4,9;Lys16,29;Arg18,30]ShK-amide] (H-RSCEDTIPESRCTAFKCRHSMKYRLSFCKRTCGTC-NH2; disulfide 3-35, 12-28, 17-32) | 0.345 nM | 0.062 nM | 0.151 nM |  |
| CC[C@H](C)[C@@H]1NC(=O)[C@@H](NC(=O)[C@H](CO)NC(=O)[C@@H](N)CCCNC(=N)N)CSSC[C@@H](C(N)=O)NC(=O)[C@H]([C@@H](C)O)NC(=O)CNC(=O)[C@@H]2CSSC[C@@H]3NC(=O)[C@H](CCCCN)NC(=O)[C@H](Cc4ccccc4)NC(=O)[C@H](C)NC(=O)[C@H]([C@@H](C)O)NC(=O)[C@H](CSSC[C@H](NC(=O)[C@H](Cc4ccccc4)NC(=O)[C@H](CO)NC(=O)[C@H](CC(C)C)NC(=O)[C@H](CCCNC(=N)N)NC(=O)[C@H](Cc4ccc(O)cc4)NC(=O)[C@H](CCCCN)NC(=O)[C@H](CCSC)NC(=O)[C@H](CO)NC(=O)[C@H](Cc4c[nH]cn4)NC(=O)[C@H](CCCCN)NC3=O)C(=O)N[C@@H](CCCCN)C(=O)N[C@@H](C)C(=O)N[C@@H]([C@@H](C)O)C(=O)N2)NC(=O)[C@H](CCCNC(=N)N)NC(=O)[C@H](CO)NC(=O)[C@H](CCCCN)NC(=O)[C@@H]2CCCN2C(=O)[C@H]([C@@H](C)CC)NC(=O)[C@H]([C@@H](C)O)NC(=O)[C@H](CC(=O)O)NC1=O [[Lys16, 29;A1a30]ShK-amide] | 0.289 nM | 0.197 nM | 0.186 nM |  |
| CC[C@H](C)[C@@H]1NC(=O)[C@@H](NC(=O)[C@H](CO)NC(=O)[C@@H](N)CCCNC(=N)N)CSSC[C@@H](C(=O)O)NC(=O)[C@H]([C@@H](C)O)NC(=O)CNC(=O)[C@@H]2CSSC[C@@H]3NC(=O)[C@H](CCC(N)=O)NC(=O)[C@H](Cc4ccccc4)NC(=O)[C@H](C)NC(=O)[C@H]([C@@H](C)O)NC(=O)[C@H](CSSC[C@H](NC(=O)[C@H](Cc4ccccc4)NC(=O)[C@H](CO)NC(=O)[C@H](CC(C)C)NC(=O)[C@H](CCCNC(=N)N)NC(=O)[C@H](Cc4ccc(O)cc4)NC(=O)[C@H](CCCCN)NC(=O)[C@H](CCSC)NC(=O)[C@H](CCCNC(=N)N)NC(=O)[C@H](Cc4c[nH]cn4)NC(=O)[C@H](CCCCN)NC3=O)C(=O)N[C@@H](CCCNC(=N)N)C(=O)N[C@@H](CCCCN)C(=O)N[C@@H]([C@@H](C)O)C(=O)N2)NC(=O)[C@H](CCCNC(=N)N)NC(=O)[C@H](CO)NC(=O)[C@H](CCCCN)NC(=O)[C@@H]2CCCN2C(=O)[C@H]([C@@H](C)CC)NC(=O)[C@H]([C@@H](C)O)NC(=O)[C@H](CC(=O)O)NC1=O [[Arg20]ShK] | 31.3 nM | 3.84 nM | 36.9 nM |  |
| CC[C@H](C)[C@@H]1NC(=O)[C@@H](NC(=O)[C@H](CCC(=O)O)NC(=O)[C@@H](N)CCCNC(=N)N)CSSC[C@@H](C(=O)O)NC(=O)[C@H]([C@@H](C)O)NC(=O)CNC(=O)[C@@H]2CSSC[C@@H]3NC(=O)[C@H](CCC(N)=O)NC(=O)[C@H](Cc4ccccc4)NC(=O)[C@H](C)NC(=O)[C@H]([C@@H](C)O)NC(=O)[C@H](CSSC[C@H](NC(=O)[C@H](Cc4ccccc4)NC(=O)[C@H](CO)NC(=O)[C@H](CC(C)C)NC(=O)[C@H](CCCNC(=N)N)NC(=O)[C@H](Cc4ccc(O)cc4)NC(=O)[C@H](CCCCN)NC(=O)[C@H](CCSC)NC(=O)[C@H](CO)NC(=O)[C@H](Cc4c[nH]cn4)NC(=O)[C@H](CCCCN)NC3=O)C(=O)N[C@@H](CCCNC(=N)N)C(=O)N[C@@H](CCCCN)C(=O)N[C@@H]([C@@H](C)O)C(=O)N2)NC(=O)[C@H](CCCNC(=N)N)NC(=O)[C@H](CO)NC(=O)[C@H](CCCCN)NC(=O)[C@@H]2CCCN2C(=O)[C@H]([C@@H](C)CC)NC(=O)[C@H]([C@@H](C)O)NC(=O)[C@H](CC(=O)O)NC1=O [[Glu2]ShK] |  | 0.111 nM | 0.029 nM | 0.039 nM |
